Where two headings read alike, the source gives them in different places.
Tests used:
[1] = UV-VIS absorption and fluorescence emission spectra; assay type: physicochemical; details: 0.1M phosphate buffer (1x PBS for 7d5); ± 1 nm error
Protocol: All labeled samples were dissolved in water and diluted with 0.1 M phosphate buffer or 1×PBS (for 7d5). Assuming that the labeled bisphosphonates have the same extinction coefficient (E) as the carboxylic acid of the free fluorescent label, the final concentrations for all labeled products were calculated from UV-VIS absorption spectra at λ=493 nm (ε=73000 M^−1 cm^−1 at pH 7.2) for FAM conjugates (7a1-7a3, 7b1, 7c1, 7d1-7d2, 7e1-7e2, 7f1-7f2), λ=567.5 nm (ε=114850 M^−1cm^−1 at pH 7.5) for RhR-X conjugates (7a4, 7b2, 7c2), λ=580 nm (c=72000 M^−1cm^−1 at pH 8.0) for ROX conjugates (7a5, 7b3), λ=648 nm (ε=240000 M^−1cm^−1 at pH 7.2) for AF647 conjugates (7a6, 7b4, 7d3), λ=774 nm (ε=240000 M^−1cm^−1 at pH 7.4) for 800CW conjugates (7d4), λ=644 nm (ε=271000 M^−1cm^−1 at pH 7.4, 1×PBS) for Sulfo-Cy5 conjugates (7d5).
Emission spectra for FAM and RhR-X conjugates were recorded using an excitation wavelength of 490 nm or 520 nm, respectively. Emission spectra for AF647 conjugates and Sulfo-Cy5 conjugates were recorded using an excitation wavelength of 600 nm. Emission spectra of 5(6)-ROX conjugates were recorded using an excitation wavelength of 575 nm. Emission spectra of IRDye CW800 conjugate was recorded using an excitation wavelength of 750 nm. The set-up of excitation slit, emission slit, integration time and increment were determined to get optimal spectra for each compound respectively, depending on the sample concentration and spectrometer used.

[2] = test system: unprenylated Rap1A (uRap1A); assay: Prenylation assay: Western blot for unprenylated Rap1A in J774.2 macrophages; assay type: cell-based, mouse; details: 10 or 100 μM, 24 h, FIG. 5A-C
Protocol: To determine the effect of fluorescent BP probes on protein prenylation, J774.2 mouse macrophages were plated out at 2×10^5 cells/mL in 24-well plates and left to adhere overnight. Cells were then treated with 10 or 100 μM of fluorescent analogues of RIS, dRIS, and ZOL, the respective native BP, or vehicle, for 24 h. Cells were lysed in radioimmunoprecipitation buffer, and proteins were separated by sodium dodecyl sulfate polyacrylamide gel electrophoresis and transferred to polyvinyl difluoride membranes by western blotting. Membranes were then incubated with antibodies to the unprenylated form of Rap1A (uRap1A) and the housekeeping protein β-actin, which were detected by incubation with fluorescently-labeled secondary antibodies and scanning of membranes on a LI-COR Infrared Imager. Results shown are representative of 2 independent experiments. The ratio between abundance of unprenylated RaplA and β-actin is indicated for each sample below the blots in FIG. 5.

[3] = assumed the same as the corresponding fluorescent dye, cited from earlier work

| Compound | Maximum absorption wavelength (λmax (abs), nm) [1] | Maximum emission wavelength (λmax (em), nm) [1] | accumulation of unprenylated Rap1A (anti-prenylation activity) [2] | Extinction coefficient ([3]; pH 7.2, 0.1M phosphate buffer) | Extinction coefficient ([3]; pH 7.0, 0.1M phosphate buffer) | Extinction coefficient ([3]; pH 8.0, 0.1M phosphate buffer) | Extinction coefficient ([3]; pH 7.5, 0.1M phosphate buffer) | Extinction coefficient ([3]; 1x PBS, pH 7.4) |
| --- | --- | --- | --- | --- | --- | --- | --- | --- |
| 1-(3-(3-carboxy-4-(6-hydroxy-3-oxo-3H-xanthen-9-yl)benzamido)-2-hydroxypropyl)-3-(2-hydroxy-2,2-diphosphonoethyl)pyridin-1-ium [Compound 5-FAM-RIS] | 493 nm | 521 nm | clearly detectable | 73,000 (pH 7.2) M^−1cm^−1 |  |  |  |  |
| 1-(3-(4-carboxy-3-(6-hydroxy-3-oxo-3H-xanthen-9-yl)benzamido)-2-hydroxypropyl)-3-(2-hydroxy-2,2-diphosphonoethyl)pyridin-1-ium [Compound 6-FAM-RIS] | 493 nm | 517 nm | clearly detectable | 73,000 (pH 7.2) M^−1cm^−1 |  |  |  |  |
| 2-(5-(3-(6-((2-hydroxy-3-(1-(2-hydroxy-2,2-diphosphonoethyl)-1H-imidazol-3-ium-3-yl)propyl)amino)-6-oxohexyl)-3-methyl-5-sulfo-1-(3-sulfopropyl)indolin-2-ylidene)penta-1,3-dien-1-yl)-3,3-dimethyl-5-sulfo-1-(3-sulfopropyl)-3H-indol-1-ium [AF647-ZOL] | 648.5 nm | 666 nm |  |  | 240,000 (pH 7.0) M^−1cm^−1 |  |  |  |
| 16-[2-carboxy-4-({2-hydroxy-3-[4-(2-hydroxy-2,2-diphosphonoethyl)pyridin-1-ium-1-yl]propyl}carbamoyl)phenyl]-3-oxa-9λ^5,23-diazaheptacyclo[17.7.1.1^5,9.0^2,17.0^4,15.0^23,27.0^13,28]octacosa-1(27),2(17),4,9(28), 13,15,18-heptaen-9-ylium [5(6)-ROX-RIS] | 580 nm | 606 nm | shows activity |  |  | 72,000 (pH 8.0) M^−1cm^−1 |  |  |
| 16-[2-carboxy-4-({3-[4-(2-carboxy-2-hydroxy-2-phosphonoethyl)pyridin-1-ium-1-yl]-2-hydroxypropyl}carbamoyl)phenyl]-3-oxa-9λ^5,23-diazaheptacyclo[17.7.1.1^5,9.0^2,17.0^4,15.0^23,27.0^13,28]octacosa-1(27),2(17),4,9(28), 13,15,18-heptaen-9-ylium [5(6)-ROX-RISPC] | 579 nm | 606 nm |  |  |  | 72,000 (pH 8.0) M^−1cm^−1 |  |  |
| CCN(CC)c1ccc2c(-c3ccc(S(=O)(=O)NCCCCCC(=O)NCC(O)C[n+]4cccc(CC(O)(P(=O)(O)O)P(=O)(O)O)c4)cc3S(=O)(=O)O)c3ccc(=[N+](CC)CC)cc-3oc2c1 (stereo not drawn) [5(6)-RhR-RIS, 1-{3-[6-({4-[6-(diethylamino)-3-(diethylimino)-3H-xanthen-9-yl]-3-sulfobenzene}sulfonamido)hexanamido]-2-hydroxypropyl}-3-(2-hydroxy-2,2-diphosphonoethyl)pyridinium] | 567.5 nm | 589 nm |  |  |  |  | 114,850 (pH 7.5) M^−1cm^−1 |  |
| CCN(CC)c1ccc2c(-c3ccc(S(=O)(=O)NCCCCCC(=O)NCC(O)C[n+]4cccc(CC(O)(C(=O)O)P(=O)(O)O)c4)cc3S(=O)(=O)O)c3ccc(=[N+](CC)CC)cc-3oc2c1 (stereo not drawn) [5(6)-RhR-RISPC, 3-(2-carboxy-2-hydroxy-2-phosphonoethyl)-1-{3-[6-({4-[6-(diethylamino)-3-(diethylimino)-3H-xanthen-9-yl]-3-sulfobenzene}sulfonamido)hexanamido]-2-hydroxypropyl}pyridinium] | 568 nm | 589 nm |  |  |  |  | 114,850 (pH 7.5) M^−1cm^−1 |  |
| CCN(CC)c1ccc2c(-c3ccc(S(=O)(=O)NCCCCCC(=O)NCC(O)C[n+]4cccc(CC(P(=O)(O)O)P(=O)(O)O)c4)cc3S(=O)(=O)O)c3ccc(=[N+](CC)CC)cc-3oc2c1 (stereo not drawn) [5(6)-RhR-dRIS, 1-{3-[6-({4-[6-(diethylamino)-3-(diethylimino)-3H-xanthen-9-yl]-3-sulfobenzene}sulfonamido)hexanamido]-2-hydroxypropyl}-3-(2,2-diphosphonoethyl)pyridin-1-ium] | 567.5 nm | 589 nm |  |  |  |  | 114,850 (pH 7.5) M^−1cm^−1 |  |
| CC1(C)C(C=CC=CC=C2N(CCCS(=O)(=O)O)c3ccc(S(=O)(=O)O)cc3C2(C)CCCCCC(=O)NCC(O)C[n+]2cccc(CC(O)(C(=O)O)P(=O)(O)O)c2)=[N+](CCCS(=O)(=O)O)c2ccc(S(=O)(=O)O)cc21 (stereo not drawn) [AF647-RISPC, 2-(5-(3-(6-((3-(3-(2-carboxy-2-hydroxy-2-phosphonoethyl)pyridin-1-ium-1-yl)-2-hydroxypropyl)amino)-6-oxohexyl)-3-methyl-5-sulfo-1-(3-sulfopropyl)indolin-2-ylidene)penta-1,3-dien-1-yl)-3,3-dimethyl-5-sulfo-1-(3-sulfopropyl)-3H-indol-1-ium] | 648 nm | 666 nm |  |  | 240,000 (pH 7.0) M^−1cm^−1 |  |  |  |
| O=C(NCC(O)C[n+]1cc(CC(O)(P(=O)(O)O)P(=O)(O)O)n2ccccc21)c1ccc(-c2c3ccc(=O)cc-3oc3cc(O)ccc23)c(C(=O)O)c1 (stereo not drawn) [Compound 5-FAM-MIN, 1-(3-(3-carboxy-4-(6-hydroxy-3-oxo-3H-xanthen-9-yl)benzamido)-2-hydroxypropyl)-3-(2-hydroxy-2,2-diphosphonoethyl)imidazo[1,2-a]pyridin-1-ium] | 493 nm | 522 nm |  | 73,000 (pH 7.2) M^−1cm^−1 |  |  |  |  |
| O=C(NCC(O)C[n+]1cc(CC(O)(C(=O)O)P(=O)(O)O)n2ccccc21)c1ccc(-c2c3ccc(=O)cc-3oc3cc(O)ccc23)c(C(=O)O)c1 (stereo not drawn) [Compound 5-FAM-MINPC, 3-(2-carboxy-2-hydroxy-2-phosphonoethyl)-1-(3-(3-carboxy-4-(6-hydroxy-3-oxo-3H-xanthen-9-yl)benzamido)-2-hydroxypropyl)imidazo[1,2-a]pyridin-1-ium] | 493 nm | 522 nm |  | 73,000 (pH 7.2) M^−1cm^−1 |  |  |  |  |
| O=C(NCC(O)C[n+]1cc(CC(O)(P(=O)(O)O)P(=O)(O)O)n2ccccc21)c1ccc(C(=O)O)c(-c2c3ccc(=O)cc-3oc3cc(O)ccc23)c1 (stereo not drawn) [Compound 6-FAM-MIN, 1-(3-(4-carboxy-3-(6-hydroxy-3-oxo-3H-xanthen-9-yl)benzamido)-2-hydroxypropyl)-3-(2-hydroxy-2,2-diphosphonoethyl)imidazo[1,2-a]pyridin-1-ium] | 493 nm | 518 nm |  | 73,000 (pH 7.2) M^−1cm^−1 |  |  |  |  |
| O=C(NCC(O)C[n+]1cc(CC(O)(C(=O)O)P(=O)(O)O)n2ccccc21)c1ccc(C(=O)O)c(-c2c3ccc(=O)cc-3oc3cc(O)ccc23)c1 (stereo not drawn) [Compound 6-FAM-MINPC, 3-(2-carboxy-2-hydroxy-2-phosphonoethyl)-1-(3-(4-carboxy-3-(6-hydroxy-3-oxo-3H-xanthen-9-yl)benzamido)-2-hydroxypropyl)imidazo[1,2-a]pyridin-1-ium] | 493 nm | 517 nm |  | 73,000 (pH 7.2) M^−1cm^−1 |  |  |  |  |
| CN1/C(=C/C=C/C=C/C2=[N+](CCCCCC(=O)NCC(O)C[n+]3ccn(CC(O)(P(=O)(O)O)P(=O)(O)O)c3)c3ccc(S(=O)(=O)[O-])cc3C2(C)C)C(C)(C)c2cc(S(=O)(=O)[O-])ccc21 (stereo not drawn) [Sulfo-Cy5-ZOL, 1-(6-((2-hydroxy-3-(1-(2-hydroxy-2,2-diphosphonoethyl)-1H-imidazol-3-ium-3-yl)propyl)amino)-6-oxohexyl)-3,3-dimethyl-2-((1E,3E,5E)-5-(1,3,3-trimethyl-5-sulfonatoindolin-2-ylidene)penta-1,3-dien-1-yl)-3H-indol-1-ium-5-sulfonate] | 644 nm | 663 nm |  |  |  |  |  | 271,000 (1x PBS, pH 7.4) M^−1cm^−1 |
